Counter-ions that a name gives are not always drawn.
Molecular target: T1, recombinant human Itk kinase domain fused with GST (Homo sapiens, UniProt Q08881)
T1 construct: recombinant human Itk kinase domain fused with GST (Glutathione S-Transferase); GST (Glutathione S-Transferase); made in house; host or cells: High Five insect cells
T1 sequence (Q08881 363-615 limits assumed): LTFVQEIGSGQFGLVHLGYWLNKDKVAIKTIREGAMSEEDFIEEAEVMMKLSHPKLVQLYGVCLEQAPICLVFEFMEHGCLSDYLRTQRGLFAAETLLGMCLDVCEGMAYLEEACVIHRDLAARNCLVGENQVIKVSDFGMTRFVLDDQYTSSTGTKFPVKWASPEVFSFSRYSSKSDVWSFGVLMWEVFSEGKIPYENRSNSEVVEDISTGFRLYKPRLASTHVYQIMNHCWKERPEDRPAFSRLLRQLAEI
Test: Itk LANCE TRF Assay
Assay type: biochemical
Settings: 2 μM biotinylated peptide substrate, 50 μM ATP, 50 minutes RT, read-out: Inhibition of Kinase Itk (IC50 μM)
Method: The Itk kinase assay utilized recombinant human Itk kinase domain fused with GST (Glutathione S-Transferase). The protein was expressed in High five insect cells, purified in one step on an affinity chromatography glutathione column and stored in 50 mM Tris/HCl (pH 7.6), 150 mM NaCl, 5% (w/v) mannitol, 1 mM DTT, 30% glycerol at −70° C. The kinase substrate used in the assay was a biotinylated peptide derived from the Src-optimal substrate (Nair et al, J. Med. Chem., 38: 4276, 1995; biotin-AEEEIYGEFEAKKKK).
The assay additions were as follows: Test compounds (or controls; 1 μL in 100% DMSO) were added to black 96-well flat-bottomed plates (Greiner 655076) followed by 20 μL Itk in assay buffer and the reaction was started by adding 20 μL ATP and peptide substrate in assay buffer. The assay buffer constitution during, phosphorylation was: 50 mM HEPES (pH 6.8), 10 mM MgCl2, 0.015% Brij 35, 1 mM DTT, 10% glycerol, 160 ng/well Itk, 2 μM peptide substrate and 50 μM ATP. The assay was stopped after 50 minutes (RT) by adding 150 μL ice-cold Stop solution (50 mM Tris/HCl, pH 7.5, 10 mM EDTA, 0.9% NaCl and 0.1% BSA) together with LANCE reagents (2 nM PT66-Eu^3+, Wallac AD0069 and 5 μg/mL Streptavidin-APC, Wallac AD0059. Both concentrations were final in stopped assay solution). The plates were measured on a Wallac 1420 Victor 2 instrument with TRF settings after 1 h incubation, and the ratio (665 signal/615 signal)*10000 was used to calculate the inhibition values. IC50 values were determined using XLfit.

Row | IC50 | SMILES
1 | 0.31 µM | COc1cc(-c2nc3cc(Br)cnc3[nH]2)ccc1OCc1ccccc1 [Example 29, 2-[4-(Benzyloxy)-3-methoxyphenyl]-6-bromo-3H-imidazo[4,5-b]pyridine trifluoroacetate]
2 | 0.24 µM | Brc1cnc2[nH]c(-c3ccc(OCCNc4nccs4)cc3)nc2c1 [Example 104, N-{2-[4-(6-Bromo-3H-imidazo[4,5-b]pyridin-2-yl)phenoxy]ethyl}-1,3-thiazol-2-amine bis(trifluoroacetate)]
3 | 0.29 µM | COc1ccc(CNc2ccc(-c3nc4cc(Br)cnc4[nH]3)cc2)cc1 [Example 180, N-[4-(6-Bromo-3H-imidazo[4,5-b]pyridin-2-yl)phenyl]-N-(4-methoxybenzyl)amine bis(trifluoroacetate)]
4 | 0.26 µM | COc1ccc(S(=O)(=O)Nc2ccc(-c3nc4ncc(Cl)c(Cl)c4[nH]3)cc2)cc1 [Example 267, N-[4-(6,7-Dichloro-1H-imidazo[4,5-b]pyridin-2-yl)phenyl]-4-methoxybenzenesulfonamide]

More lines, now with the values behind:

Row | SMILES | IC50
5 | OC1CCN(CC(O)COc2ccc(-c3nc4cc(Br)cnc4[nH]3)cc2)C1 (centres unmarked) [Example 124, 1-{3-[4-(6-Bromo-3H-imidazo[4,5-b]pyridin-2-yl)phenoxy]-2-hydroxypropyl}pyrrolidin-3-ol] | 0.43 µM
6 | OCCN1CCN(CC(O)COc2ccc(-c3nc4cc(Br)cnc4[nH]3)cc2)CC1 (centres unmarked) [Example 162, 1-[4-(6-Bromo-3H-imidazo[4,5-b]pyridin-2-yl)phenoxy]-3-[4-(2-hydroxyethyl)piperazin-1-yl]propan-2-ol bis(trifluoroacetate)] | 0.53 µM
7 | Clc1cnc2[nH]c(-c3ccc(OCCN4CCOCC4)cc3)nc2c1N1CCCC1 [Example 236, 6-Chloro-2-[4-(2-morpholin-4-ylethoxy)phenyl]-7-pyrrolidin-1-yl-3H-imidazo[4,5-b]pyridine] | 0.41 µM
8 | Cc1ccc(-c2c(Cl)cnc3[nH]c(-c4ccc(OCCN5CCOCC5)cc4)nc23)cc1 [Example 238, 6-Chloro-7-(4-methylphenyl)-2-[4-(2-morpholin-4-ylethoxy)phenyl]-3H-imidazo[4,5-b]pyridine] | 0.35 µM

Source: patent publication US7410966B2, “Use of and some novel imidazopyridines” (AstraZeneca AB, priority 2002, dated 2008)
